For one assay, the target named is T1, GNRR-3 (Caenorhabditis elegans, UniProt Q23265).
T1 sequence (Q23265 1-395): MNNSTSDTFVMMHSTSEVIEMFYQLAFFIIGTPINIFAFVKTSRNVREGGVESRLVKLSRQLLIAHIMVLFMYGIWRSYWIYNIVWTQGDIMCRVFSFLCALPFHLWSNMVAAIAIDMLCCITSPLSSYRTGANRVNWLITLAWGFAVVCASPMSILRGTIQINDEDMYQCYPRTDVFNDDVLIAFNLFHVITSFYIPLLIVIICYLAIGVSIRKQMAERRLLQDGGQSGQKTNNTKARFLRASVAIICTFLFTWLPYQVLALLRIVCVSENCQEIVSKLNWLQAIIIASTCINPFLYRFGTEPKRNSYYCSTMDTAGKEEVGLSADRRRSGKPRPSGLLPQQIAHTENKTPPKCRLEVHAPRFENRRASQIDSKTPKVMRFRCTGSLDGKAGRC
The assay can be described thus: Receptor activation assay (aequorin calcium mobilization), GNRR-3 co-expressed with promiscuous Gα16 in CHO cells. It is filed as cell-based, C. elegans. The note with it: for pEC50: CHO cells stably expressing apo-aequorin and Gα16, transiently transfected receptor, aequorin luminescence relative to total calcium response, mean EC50, N = 5–7 replicates, 95% confidence interval given; for Activation of GNRR-3 (in words): CHO/apo-aequorin/Gα16 calcium mobilization assay, peptides initially tested at 10 µM. The text has this:
(§1) We tested a C. elegans peptide library for the ability to activate these seven receptors using an in vitro calcium mobilization assay. We cloned and transiently expressed each of the seven GNRRs in Chinese hamster ovary (CHO) cells stably expressing apo-aequorin and the human promiscuous Gα16 protein. These cells were challenged with a synthetic library of over 340 C. elegans peptides of the RFamide (FLP) and neuropeptide-like protein (NLP) families. […] Peptides encoded by nlp-2 and nlp-23 potently activated GNRR-3 with EC50 values in the nanomolar range. By contrast, NLP-22 activated GNRR-3 with far lower potency (EC50 value > 6 µM), which may be physiologically irrelevant. GNRR-6 was potently activated by NLP-22 and NLP-23 peptides. Peptides encoded by nlp-2 also activated GNRR-6, although with a higher EC50 value than NLP-22 and NLP-23. […] In short, we identified the neuropeptides encoded by nlp-2, nlp-22 and nlp-23 as bioactive ligands of the GnRH/AKH-like receptors GNRR-3 and GNRR-6 in vitro.
(§2) Figure 2 NLP-2, NLP-22, and NLP-23 peptides activate GNRR-3 and GNRR-6 in vitro. Dose-response curves for GNRR-3 (A) and GNRR-6 (B) co-expressed in CHO cells with a promiscuous Gα16 protein are shown as relative (%) to the highest value (100% activation) after normalization to the total calcium response. Each data point represents the mean ± SEM of N = 5–7 replicates for each peptide. (C) Amino acid (AA) sequences of RPamide neuropeptides activating GNRR-3 and GNRR-6 with their respective mean EC50 values and 95% Confidence intervals.
(§3) Peptides were custom-synthesized by GL Biochem Ltd. All peptides were initially tested at a concentration of 10 µM. Receptor activating peptides were purified using reverse-phase HPLC and verified using MALDI TOF mass spectrometry. Peptide concentrations were determined with a bicinchoninic acid (BCA) assay. For receptor activation assays, peptides were first lyophilized and then diluted to the desired concentrations.
(§4) Chinese hamster ovary (CHO) cells stably expressing apo-aequorin and the promiscuous Gα16 subunit were used for receptor deorphanization (ES-000-A24, Perkin-Elmer). To characterize downstream signaling, CHO cells stably expressing apo-aequorin but lacking the promiscuous Gα16 protein were used (ES-000-A12, Perkin-Elmer). Cells were cultured in Dulbecco’s Modified Eagle’s Medium Nutrient Mixture Ham F-12 (DMEM/F-12, Invitrogen) to which 1% penicillin/streptomycin, 2.5 µg/ml amphotericin B, and 10% fetal bovine serum (Sigma-Aldrich) were added. Growth medium was supplemented with 250 µg/ml zeocin or 5 µg/ml puromycin, which serves as a selection reagent for CHO cells with or without the promiscuous Gα16 subunit, respectively. Cells were grown as a monolayer at 37 °C, 5% CO2 and high humidity. For transfection, 3.75 ml Opti-MEM I (Invitrogen), 7.5 µg pcDNA3.1 construct and 18.75 µl Plus reagent (Invitrogen) were gently mixed in a polystyrene tube. After incubation for 5 minutes at room temperature, 45 µl Lipofectamine LTX (Invitrogen) was added and gently mixed. The transfection reagent was incubated for 30 min at room temperature. Growth medium was removed leaving 3 ml and the transfection reagents were added dropwise to the cells. Transfected cells were grown overnight and 20 ml growth medium was added the next day. Cells were grown one more day before the assay at 28 °C.
(§5) Two days after transfection, CHO cells were detached from the surface of the culture flask using phosphate buffered saline with 0.2% EDTA and collected in 10 ml colorless DMEM/F-12 (11039, Gibco). Cell viability was measured using a NucleoCounter NC-100 (Chemometic). Cells were pelleted for 4 min at 800 rpm at room temperature and resuspended to a concentration of 5 × 10^6 cells/ml in colorless DMEM/F12 with 0.1% bovine serum albumin (BSA). 5 µM coelenterazine H (Invitrogen) was added to the cell suspension. […]

The next assay deals with T2, GNRR-6 (Caenorhabditis elegans, UniProt Q19399).
T2 sequence (Q19399 1-400): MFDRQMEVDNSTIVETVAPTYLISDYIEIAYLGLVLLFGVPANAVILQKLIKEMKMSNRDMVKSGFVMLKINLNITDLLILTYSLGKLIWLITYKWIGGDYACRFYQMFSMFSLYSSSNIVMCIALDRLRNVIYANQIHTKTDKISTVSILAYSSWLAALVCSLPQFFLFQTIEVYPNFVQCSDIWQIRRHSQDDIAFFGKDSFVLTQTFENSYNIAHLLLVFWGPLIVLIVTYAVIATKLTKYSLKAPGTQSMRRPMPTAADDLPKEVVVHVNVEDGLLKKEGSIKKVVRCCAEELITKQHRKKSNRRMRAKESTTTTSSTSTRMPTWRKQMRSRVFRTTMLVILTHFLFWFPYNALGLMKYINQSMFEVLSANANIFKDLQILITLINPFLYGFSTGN
The assay can be described thus: Receptor activation assay (aequorin calcium mobilization), GNRR-6 co-expressed with promiscuous Gα16 in CHO cells. The note with it: for pEC50: CHO cells stably expressing apo-aequorin and Gα16, transiently transfected receptor, aequorin luminescence relative to total calcium response, mean EC50, N = 5–7 replicates, 95% confidence interval given; for Activation of GNRR-6 (in words): CHO/apo-aequorin/Gα16 calcium mobilization assay, peptides initially tested at 10 µM. The format is cell-based, C. elegans.
From the text: as §1, §2, §3, §4, §5
On the technique in general: A change in cytosolic calcium serves as a functional read-out for many receptors and channels.

We go through 6 compounds from paper PMC7303124, “RPamide neuropeptides NLP-22 and NLP-2 act through GnRH-like receptors to promote sleep and wakefulness in C. elegans” (Scientific Reports, 2020).

pEC50: −log10 of the molar value. Where “and” joins values, the source holds several entries; their conditions need not be identical. Equal values may be shown once. Where a SMILES comes first, the peptide text is derived from it.

In general, pEC50 refers to −log10 of the EC50, conventionally taken in molar units. As for `CC[C@H](C)[C@H](NC(=O)[C@@H](N)CO)C(=O)N[C@@H](C)C(=O)N[C@@H](CC(C)C)C(=O)NCC(=O)N[C@@H](CCCNC(=N)N)C(=O)N[C@@H](CO)C(=O)NCC(=O)N[C@@H](Cc1ccccc1)C(=O)N[C@@H](CCCNC(=N)N)C(=O)N1CCC[C@H]1C(N)=O` [NLP-2-1] (H-SIALGRSGFRP-NH2; N-terminus assumed), on GNRR-3, the negative-log EC50 (pEC50) was 4.09 and the “Activation of GNRR-3 (in words)” value is recorded as “activated these receptors in a dose-dependent manner”. For the same compound, on GNRR-6, the negative logarithm of the EC50 (pEC50) was 6.87 and the “Activation of GNRR-6 (in words)” value is recorded as “activated these receptors in a dose-dependent manner”.

Regarding `CSCC[C@H](NC(=O)[C@H](C)NC(=O)[C@H](CCSC)NC(=O)[C@@H](N)CO)C(=O)NCC(=O)N[C@@H](CCCNC(=N)N)C(=O)N[C@@H](CC(C)C)C(=O)NCC(=O)N[C@@H](CC(C)C)C(=O)N[C@@H](CCCNC(=N)N)C(=O)N1CCC[C@H]1C(N)=O` [NLP-2-2] (H-SMAMGRLGLRP-NH2; N-terminus assumed), on GNRR-3, the negative logarithm of the EC50 (pEC50) was 6.25 and the “Activation of GNRR-3 (in words)” value was “activated these receptors in a dose-dependent manner”. Further, on GNRR-6, the negative logarithm of the EC50 (pEC50) is 6.27 and the “Activation of GNRR-6 (in words)” value is “activated these receptors in a dose-dependent manner”.

Take `CSCC[C@H](NC(=O)[C@@H](N)CO)C(=O)N[C@@H](C)C(=O)N[C@@H](Cc1ccc(O)cc1)C(=O)NCC(=O)N[C@@H](CCCNC(=N)N)C(=O)N[C@@H](CCC(N)=O)C(=O)NCC(=O)N[C@@H](Cc1ccccc1)C(=O)N[C@@H](CCCNC(=N)N)C(=O)N1CCC[C@H]1C(N)=O` [NLP-2-3] (H-SMAYGRQGFRP-NH2; N-terminus assumed): at GNRR-3, the pEC50 is 5.48 and the “Activation of GNRR-3 (in words)” value was “activated these receptors in a dose-dependent manner”. At GNRR-6, the negative logarithm of the EC50 (pEC50) was 6.77 and the “Activation of GNRR-6 (in words)” value is “activated these receptors in a dose-dependent manner”.

Take `CC[C@H](C)[C@H](NC(=O)[C@H](C)NC(=O)[C@@H](NC(=O)[C@@H](N)CO)[C@@H](C)CC)C(=O)NCC(=O)N[C@@H](CCCNC(=N)N)C(=O)N[C@@H](C)C(=O)NCC(=O)N[C@@H](Cc1ccccc1)C(=O)N[C@@H](CCCNC(=N)N)C(=O)N1CCC[C@H]1C(N)=O` [NLP-22] (H-SIAIGRAGFRP-NH2; N-terminus assumed): on GNRR-3, the negative-log EC50 (pEC50) is < 5.22 and 5.17; the “Activation of GNRR-3 (in words)” value is given as “activated these receptors in a dose-dependent manner”. Besides, at GNRR-6, the pEC50 was 8.39 and the “Activation of GNRR-6 (in words)” value is recorded as “activated these receptors in a dose-dependent manner”.

Consider `CC[C@H](C)[C@H](NC(=O)[C@H](C)NC(=O)[C@H](CCSC)NC(=O)[C@@H](N)CO)C(=O)NCC(=O)N[C@@H](CCCNC(=N)N)C(=O)N[C@@H](C)C(=O)NCC(=O)N[C@@H](CCSC)C(=O)N[C@@H](CCCNC(=N)N)C(=O)N1CCC[C@H]1C(N)=O` [NLP-23-2] (H-SMAIGRAGMRP-NH2; N-terminus assumed), for which, on GNRR-3, the pEC50 is 6.80 and the “Activation of GNRR-3 (in words)” value is “activated these receptors in a dose-dependent manner”. In addition, on GNRR-6, the pEC50 was 8.22 and the “Activation of GNRR-6 (in words)” value is “activated these receptors in a dose-dependent manner”.

On to “LYISRQGFRPA [NLP-23-1, NLP-23 derived peptide … lacking the C-terminal glycine amidation target]”, for which the “Activation of GNRR-3 (in words)” value at GNRR-3 is “did not activate”. Moreover, the “Activation of GNRR-6 (in words)” value at GNRR-6 is listed as “did not activate”.
